Results taken from patent US20160113904A1, “SKIN CARE PRODUCTS COMPRISING SUBSTITUTED HYDROXYPROLINE WITH UNSATURATED FATTY ACIDS DERIVATIVES” (MEDWELL LABORATORIES LTD., priority 2013, published 2016).
Entries after “also recorded” stand apart in the source; their conditions may differ.

What was measured:
Assay type in all cases: in vivo, human
[1] = test system: healthy female volunteers, crow's feet area around the eyes; assay: Anti wrinkle test: silicone imprints, skin roughness
Excerpt: (§1) Ten healthy female volunteers were included and completed the study.
Silicon imprints were taken from the crow's feet area around the eyes at both treated and control sides at each time point.
(§2) A cosmetic anti wrinkle product MW-001 was applied on half of the face for four weeks by each volunteer while the other half served as a control, without any product application during the whole test period.
A computer program draws a realistic density three-dimensional image of the relief of the skin on a colour screen for a particular density of points selected for x and y axes and then the measurements data stored in the computer are processed and then evaluated.
This analysis consists of the following steps:
1. Generation of a roughness profile from the surface relief by alignment and filtering. 2. Calculation of standardized roughness parameters DIN 4768 ff). […].
A statistical comparison between the results at T0 and at T1 was made according to the Wilcoxon signed-ranks test, a very sensitive paired-samples non-parametric test for small groups with unknown distribution, where p<0.05 indicates a significant difference. The software used was SPSS 14.

[2] = test system: volunteers with psoriasis; assay: Psoriasis trial: subjective pruritus level; conditions: for Pruritus level: treated area, scale 0-5
Excerpt: (§3) Fifteen volunteers aged 29-73 with psoriasis.
(§4) Volunteers were instructed to apply the product only on one side of the body, on the worst affected area at least once a day, for 4 weeks, while the other side was defined as the control area and was not treated.
The volunteers were asked to assess the pruritus level on a 0-5 scale at T0, T1 and T2.
(§5) A statistical comparison between T0 and the other two time-points (T1 and T2) and between the treated and the Control areas were made by paired sample t-test, while p<0.05 indicated a significant difference

[3] = test system: healthy female volunteers; assay: Anti wrinkle test: side effects; conditions: facial use for 4 weeks
Excerpt: Volunteers were asked to report side effects, such as dryness, burning sensation, peeling of the skin, redness, etc. immediately to the study director.

[4] = test system: healthy female volunteers, facial skin; assay: Anti wrinkle test: TEWL by Tewameter; conditions: face, treated area
Protocol: as §1
Moisture level of the skin (corneometry) and TEWL (Trans Epidermal Water Loss) were measured at each time point.
as §2
TEWL (the ability not to harm the skin barrier) was measured with Tewameter TM 300, Courage & Khazaka, CK. TEWL was recorded at T0, T1 and T2. The results of TEWL in each measurement were recorded after stabilization of the curve of the results in real time. Room temperature and humidity were constant.

[5] = test system: volunteers with psoriasis; assay: Psoriasis trial: study director's evaluation of lesions; conditions: for Redness level / Scale level / Thickness of the Skin / Infected area size: treated area
Protocol: In Examples 1-3 an emulsion type O/W Creams of MWL-001 (2.5% and 5% w/w) was prepared using Emulgade® SE emulsifiers (glyceryl stearate), Ceteareth-20, cetearyl alcohol, cetyl palmitate, cetearyl alcohol-Lanette®, isopropyl myristate, caprilic/capric acid triglycerides (Myritol®318), strearic acid, a Trietanolamine and purified water, according to Ph Eur 6.0.
as §3
The volunteers were instructed to use the cream at least once a day, for 4 weeks.
as §4
Each volunteer was examined at baseline (T0), after two weeks (T1) and after 4 weeks of using the product (T2). The study Director rated the state of the skin according to the parameters of scales severity, thickness of the plaque, redness and the size of the lesions. Erythema level was documented at each time point.
The following parameters were evaluated:
a) Size of lesion b) Thickness of lesion
The parameters mentioned above were evaluated on a scale of 0 to 5 by the study director.
as §5
The results of 15 volunteers at each time point are presented in the Tables below and in the relevant Figures. All parameters were assessed in a scale of 0-5 where 0=none and 5=very extreme

[6] = test system: volunteers with Atopic dermatitis; assay: Atopic dermatitis trial: subjective pruritus intensity; conditions: for Change in Pruritus level / Pruritus level: treated area; for Pruritus level: scale 0-5
Excerpt: Ten volunteers aged 2-30 years participated in the trial. Four females and six males.
Volunteers were instructed to apply the product only on one side of the body, on the worst affected area, while the other side was defined as the control area and was not treated. The tested material, a body lotion product, was applied 1-3 times a day for a period of 4 weeks.
The volunteers were asked to assess the pruritus intensity on a 0-5 scale at T0, T1 and T2. • 0=None • 1=Slight • 2=Moderate • 3=Severe • 4=Extreme • 5=Very Extreme
A statistical comparison between T0 and the other two time-points (T1 and T2) and between the treated and the Control areas were made according to the Wilcoxon signed-ranks test, while p<0.05 indicated a significant difference

[7] = test system: volunteers with psoriasis; assay: Psoriasis trial: erythema level by Mexameter; conditions: treated area
Protocol: as §3, §4
Erythema level was evaluated by Mexameter, Courage & Khazaka, CK. The probe of the Mexameter was placed on the skin at a constant pressure find measurements of skin hydration were taken. Skin erythema level was recorded at baseline, after 2 weeks and after 4 weeks of treatment.
as §5

[8] = any of the sides, whole study period, p>0.05
[9] = treatment area, after 4 weeks, p<0.05

For `CCC=CCC=CCC=CCC=CCC=CCC=CCCC(=O)N1CC(O)CC1C(=O)O` (stereo in doubt) [MW-001], the Overall efficacy conclusion ([1]; rough and wrinkled skin) was “efficient for the treatment of rough and wrinkled skin”, the “Decrease of skin roughness” value ([1]; treated area, before versus after 2 weeks of use) was 10.8% and the “Decrease of skin roughness” value ([1]; treated area, before versus after 4 weeks of use) was 19.5%. The “Skin roughness improvement, statistical analysis” value ([1]; treated area, both T1 and T2, p<0.05) was “significant”, the “Pruritus level, statistical analysis of change” value [2, 8] was “No significant change” and the “Pruritus level” value ([2]; T0 baseline) was 2.1. The “Pruritus level” value ([2]; T1 after two weeks) was 1.6, the “Pruritus level” value ([2]; T2 after four weeks) was 1.3 and the “Side effects / safety” value [3] was “None of the volunteers reported of any side effects; also recorded: safe for use”. The “Average TEWL level” value ([4]; T0 baseline) was 7.8 g/hm^2, the “Average TEWL level” value ([4]; T1 after 2 weeks of use) was 9.4 g/hm^2 and the “Average TEWL level” value ([4]; T2 after 4 weeks of use) was 7.6 g/hm^2. The Overall efficacy conclusion [5] was “efficient in the treatment of psoriasis”, the “Lesion area size, statistical analysis of decrease” value ([5]; after 4 weeks of application) was “insignificant” and the “Scale parameter, treatment side versus control side” value ([5]; after both 2 weeks (T1) and 4 weeks (T2)) was “Significant differences”. The “Redness parameter, statistical analysis of change” value [5, 8] was “No significant change”, the “Redness level” value ([5]; T0 baseline, scale 0-5) was 3.3 and the “Scale level” value ([5]; T0 baseline, scale 0-5) was 4.5. The “Thickness of the Skin” value ([5]; T0 baseline, scale 0-5) was 3.0, the “Infected area size” value ([5]; T0 baseline, scale 0-5, 15 volunteers) was 4.1 and the “Infected area size” value ([5]; T1 after two weeks, scale 0-5) was 3.8. The “Redness level” value ([5]; T1 after two weeks, scale 0-5) was 3.5, the “Scale level” value ([5]; T1 after two weeks, scale 0-5) was 4.1 and the “Thickness of the Skin” value ([5]; T1 after two weeks, scale 0-5) was 2.6. For the same compound, the “Infected area size” value ([5]; T2 after four weeks, scale 0-5) was 3.9, the “Redness level” value ([5]; T2 after four weeks, scale 0-5) was 3.2 and the “Scale level” value ([5]; T2 after four weeks, scale 0-5) was 3.8. For the same compound, the “Thickness of the Skin” value ([5]; T2 after four weeks, scale 0-5) was 2.4, the “Lesion area size, statistical analysis of change” value ([5]; treatment area, after 2 weeks of application) was “significant decrease” and the “Scales parameter, statistical analysis of change” value [5, 9] was “significant improvement”. The “Thickness parameter, statistical analysis of change” value [5, 9] was “significant improvement”, the “Pruritus level, statistical analysis of change” value ([6]; after 1 and 2 weeks of treatment, only at the treated area) was “decreased significantly” and the “Change in Pruritus level” value ([6]; Baseline) was 100%. For the same compound, the Pruritus level ([6]; T0 baseline) was 3.4, the Pruritus level ([6]; T1 after one week) was 1.4 and the Pruritus level ([6]; T2 after two weeks) was 0.9. For the same compound, the “Change in Pruritus level” value ([6]; Week 1, relative to baseline) was 41%, the “Change in Pruritus level” value ([6]; Week 2, relative to baseline) was 26% and the “Erythema level” value ([7]; T0 baseline) was 562.1. For the same compound, the “Erythema level” value ([7]; T1 after two weeks) was 517.5 and the “Erythema level” value ([7]; T2 after four weeks) was 576.7.
